According to US20090137554A1, “1,4,5,6-TETRAHYDRO -PYRROLO[2,3-d]AZEPINES AND -IMIDAZO[4,5-d]AZEPINES AS MODULATORS OF NUCLEAR RECEPTOR ACTIVITY” (Wyeth, priority 2007, published 2009):

Target: T1, Gal4/hFXR fusion protein (Homo sapiens, UniProt Q96RI1)
T1 sequence (Q96RI1 262-486 limits assumed): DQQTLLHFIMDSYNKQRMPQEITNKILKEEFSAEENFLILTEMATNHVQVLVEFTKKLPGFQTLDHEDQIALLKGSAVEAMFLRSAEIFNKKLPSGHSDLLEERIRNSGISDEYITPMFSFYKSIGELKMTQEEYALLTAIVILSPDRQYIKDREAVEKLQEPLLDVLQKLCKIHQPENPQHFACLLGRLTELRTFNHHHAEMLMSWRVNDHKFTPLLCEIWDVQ
Test: Gal4/hFXR fusion protein agonist activity in human 293 cells (luciferase reporter)
Format: cell-based
Settings: Human 293 stable clone 2 expressing Gal4/hFXR, 24 hours incubation
Experimental: Characterization of Compounds for Gal4/hFXR Fusion Protein Agonist Activity in Human 293 Cells
• 1. Compounds to be tested are prepared as 2× stocks in assay medium. • 2. […] The supernatant is removed and the cells are resuspended in 1 ml assay medium. The cells are counted and diluted in assay medium to 200,000 cells per ml. The cells are then plated at 10,000 cells per well in Culturplate-96 plates in 50 μL assay medium. The cells are incubated at 37° C. for approximately 1 hour. • 3. […] All assays include 1 uM GW4064 as a reference standard. • 4. Cells are incubated for 24 hours at 37° C.
• 5. The medium is removed, and the cells are lysed in 25 uL lysis buffer (Promega, E3971). • 6. The plates are analyzed for luciferase activity with luciferase assay reagent (Promega E1483). Plates are read on Victor^3V instrument using the protocol “Shuguang Luciferase assay” (dispense volume=100 uL, plate type=“Packard Viewplate”, measurement height=8 mm from bottom of plate, 5 second read per well).
• 1. For agonist single point screening, data are analyzed in Excel. Each compound is tested in triplicate. The fold stimulation of each compound is calculated as RLUcpd/RLUbkgd. • 2. Comparison to GW4064 is made by the equation (RLUcpd/RLUbkgd)/(RLUGW4064/RLUbkgd) • 3. For agonist potency determinations, statistical analysis of the data is performed using a customized Excel/SAS program.

| SMILES | EC50 [nM] |
| --- | --- |
| CC(C)OC(=O)C1=CN(C(=O)c2cccs2)CC(C)(C)c2cc(C#N)[nH]c21 [Example 7, iso-Propyl 2-cyano-4,4-dimethyl-6-(2-thienylcarbonyl)-1,4,5,6-tetrahydropyrrolo[2,3-d]azepine-8-carboxylate] | 22 |
| CC(C)OC(=O)C1=CN(C(=O)C2CCOCC2)CC(C)(C)c2cc(C#N)[nH]c21 [Example 9, iso-Propyl 2-cyano-4,4-dimethyl-6-(tetrahydro-2H-pyran-4-ylcarbonyl)-1,4,5,6-tetrahydropyrrolo[2,3-d]azepine-8-carboxylate] | 8.9 |
| CC(C)OC(=O)C1=CN(C(=O)c2ccc(F)c(F)c2)CC2(CCOCC2)c2cc(C#N)[nH]c21 [Example 10, iso-Propyl 2′-cyano-6′-(3,4-difluorobenzoyl)-2,3,5,5′,6,6′-hexahydro-1′H-spiro[pyran-4,4′-pyrrolo[2,3-d]azepine]-8′carboxylate] | 86 |

Second part, the compound after the results:

| EC50 [nM] | SMILES |
| --- | --- |
| 5.3 | CC(C)OC(=O)C1=CN(C(=O)c2ccc(F)c(F)c2)CC(C)(C)c2cc(C#N)[nH]c21 [Example 1, iso-Propyl 2-cyano-6-(3,4-difluorobenzoyl)-4,4-dimethyl-1,4,5,6-tetrahydropyrrolo[2,3-d]azepine-8-carboxylate] |
| 8 | CC(C)OC(=O)C1=CN(C(=O)c2cccc(C(F)(F)F)c2)CC(C)(C)c2cc(C#N)[nH]c21 [Example 8, iso-Propyl 2-cyano-4,4-dimethyl-6-[3-(trifluoromethyl)benzoyl]-1,4,5,6-tetrahydropyrrolo[2,3-d]azepine-8-carboxylate] |
